{
  "source": "patent US4053604A",
  "about": "(priority 1975, dated 1977)",
  "key": {"[1]": {"assay": "tail-flick test, analgesic activity of the agent alone", "type": "in vivo, albino mice", "text": "(§1) In the following experiments, phenoperidine and Compound I are used in the form of their hydrochloride salt and droperidol in the form of its free base in the presence of lactic acid for adjustment to pH to 3.4. Results are expressed on the basis of the form of the drug employed (i.e., free base or hydrochloride salt).\n(§2) Results of such tests using albino mice are illustrated by tables 1,2 and 3 in which the neuroleptic agent, droperidol, is included for comparative purposes.\n*The dose which increased analgesia by 50% when tested 15 minutes after […]"}, "[2]": {"assay": "tail-flick test, potentiation of the analgesic activity of phenoperidine", "type": "in vivo, albino mice", "text": "as §1, §2\nPotentiation of the Analgesic Activity (ED50) of Phenoperidine,\ni.e. 0.5 mg/kg, by varying Doses of Neuroleptic Agents.\n*PD50 refers to the dose of the neuroleptic which increased the\nanalgesic activity (ED50) of phenoperidine by 50%.\nModified Analgesic Activity of Phenoperidine in\nthe Presence of the Neuroleptic PD50. -\n*ED50 refers to the analgesic activity of phenoperidine after\npretreatment with a fixed dose (PD50) of the neuroleptic agents."}, "[3]": {"assay": "respiratory minute volume and mean arterial blood pressure in rats", "type": "in vivo", "protocol": "These effects are less than those encountered with neuroleptics presently available for NLA as evidenced by laboratory experiments in rats in which these cardiovascular parameters are measured before and after the administration of Compound 1 and the neuroleptic agent droperidol, see Table 8.\nThe Effect of Compound 1 and Droperidol on Respiratory Minute Volume\nand Mean Arterial Blood Pressure"}, "[4]": {"assay": "behavioral changes and side effects in cebus monkeys", "type": "in vivo", "settings": "for Behavioral Changes / Side Effects / Duration / Onset / time of onset of side effect (Extrapyramidal): individual monkey"}, "[5]": {"assay": "respiratory minute volume and mean arterial blood pressure in rats", "type": "in vivo", "settings": "with phenoperidine, intravenously, doses substantially greater than required for NLA; in words"}},
  "note": "“And” between values parts separate entries of the source, which are not always exact repeats. Equal entries are not always repeated. “Also recorded” adds a separate entry of the source.",
  "data": [
    {"smiles": "CC(C)[C@@]1(O)CCN2C[C@@H]3c4ccccc4CCc4cccc(c43)[C@H]2C1", "note": "[Compound 1, (+)(4a,13b-trans)-(3-hydroxy,13b-trans)-3-isopropyl-2,- 3,4,4a,8,9,13b,14-octahydro-lH-benzo[6,7]cyclohepta[1,2,3-de]pyrido[2,1-a]isoquinolin-3-ol]", "values": [
      {"measurement": "ED50", "setting": "[1]; Mus musculus, ip, 0.25 h, i.p., dose which increased analgesia by 50% when tested 15 minutes after drug administration", "value": "> 35", "unit": "mg/kg"},
      {"measurement": "analgesic activity when given alone", "setting": "[1]; in words, listed as Compound I", "value": "only a negligible amount of analgesic activity; also recorded: no analgesic activity could be demonstrated"},
      {"measurement": "relative potentiating activity, Compound I versus droperidol", "setting": "[2]; in words", "value": "equiactive"},
      {"measurement": "enhancement of analgesic activity of phenoperidine by concomitant administration", "setting": "[2]; in words, listed as Compound I", "value": "well defined potentiating effect on analgesic agents; also recorded: significantly enhanced"},
      {"measurement": "PD50 of Neuroleptic Agent (dose which increased the analgesic activity (ED50) of phenoperidine by 50%)", "setting": "[2]; mouse, in vivo, ip", "value": "0.56 ± 0.06", "unit": "mg/kg"},
      {"measurement": "Change in Mean B.P. as % of Control", "setting": "[3]; 25 μg/kg", "value": "-0.83 ± 0.83 % of Control"},
      {"measurement": "Change in Minute Volume as % of Control", "setting": "[3]; 25 μg/kg", "value": "+4.2 ± 1.4 % of Control"},
      {"measurement": "Change in Mean B.P. as % of Control", "setting": "[3]; 100 μg/kg", "value": "-4.1 ± 2.6 % of Control"},
      {"measurement": "Change in Minute Volume as % of Control", "setting": "[3]; 100 μg/kg", "value": "+6.8 ± 1.9 % of Control"},
      {"measurement": "Change in Mean B.P. as % of Control", "setting": "[3]; 250 μg/kg", "value": "-8.9 ± 1.6 % of Control"},
      {"measurement": "Change in Minute Volume as % of Control", "setting": "[3]; 250 μg/kg", "value": "+6.6 ± 2.7 % of Control"},
      {"measurement": "effect on respiratory minute volume", "setting": "[3]; in words", "value": "only a very small increase in minute volume"},
      {"measurement": "effect on mean arterial blood pressure", "setting": "[3]; upper level of therapeutically effective neuroleptic dosages, in words", "value": "minor diminution of blood pressure"},
      {"measurement": "Behavioral Changes", "setting": "[4]; Compound 1, 5 μg/kg i.v.", "value": "None"},
      {"measurement": "Side Effects", "setting": "[4]; Compound 1, 5 μg/kg i.v.", "value": "None"},
      {"measurement": "Behavioral Changes", "setting": "[4]; Compound 1, 10 μg/kg i.v.", "value": "Passive; also recorded: Huddle"},
      {"measurement": "Duration", "setting": "[4]; Compound 1, 10 μg/kg i.v.", "value": "3 h and > 4 h and 2 h"},
      {"measurement": "Onset", "setting": "[4]; Compound 1, 10 μg/kg i.v.", "value": "30 min and 20 min and 15 min and 60 min"},
      {"measurement": "Side Effects", "setting": "[4]; Compound 1, 10 μg/kg i.v.", "value": "None"},
      {"measurement": "Behavioral Changes", "setting": "[4]; Compound 1, 20 μg/kg i.v.", "value": "Passive-Huddle"},
      {"measurement": "Duration", "setting": "[4]; Compound 1, 20 μg/kg i.v.", "value": "4 h and > 5 h and 3 h"},
      {"measurement": "Onset", "setting": "[4]; Compound 1, 20 μg/kg i.v.", "value": "20 min and 15 min"},
      {"measurement": "Side Effects", "setting": "[4]; Compound 1, 20 μg/kg i.v.", "value": "None"},
      {"measurement": "Behavioral Changes", "setting": "[4]; Compound 1, 50 μg/kg i.v.", "value": "Huddle"},
      {"measurement": "Duration", "setting": "[4]; Compound 1, 50 μg/kg i.v.", "value": "> 4", "unit": "h"},
      {"measurement": "Onset", "setting": "[4]; Compound 1, 50 μg/kg i.v.", "value": "20 min and 10 min"},
      {"measurement": "Side Effects", "setting": "[4]; Compound 1, 50 μg/kg i.v.", "value": "Extrapyramidal and None"},
      {"measurement": "time of onset of side effect (Extrapyramidal)", "setting": "[4]; Compound 1, 50 μg/kg i.v.", "value": "30 min and 40 min"},
      {"measurement": "Behavioral Changes", "setting": "[4]; Compound 1, 100 μg/kg i.v.", "value": "Huddle"},
      {"measurement": "Duration", "setting": "[4]; Compound 1, 100 μg/kg i.v.", "value": "> 24", "unit": "h"},
      {"measurement": "Onset", "setting": "[4]; Compound 1, 100 μg/kg i.v.", "value": "10 min and 5 min"},
      {"measurement": "Side Effects", "setting": "[4]; Compound 1, 100 μg/kg i.v.", "value": "Extrapyramidal"},
      {"measurement": "time of onset of side effect (Extrapyramidal)", "setting": "[4]; Compound 1, 100 μg/kg i.v.", "value": "15 min and 10 min"},
      {"measurement": "doses at which signs of excitomotor agitation (extrapyramidal excitation) were observed", "setting": "[4]; i.v.", "value": "50 to 100", "unit": "µg/kg"},
      {"measurement": "eliciting behavioral changes", "setting": "[4]; in words", "value": "effective in eliciting behavioral changes at very small doses"},
      {"measurement": "effect on respiratory depression caused by analgesic agents", "setting": "[5]", "value": "only slightly changed"}
    ]}
  ]
}
